Measured values as given in BindingDB's records for patent US20240072809 (Avilar Therapeutics, 2024).

Biological target: T1, Asialoglycoprotein receptor 1 (Homo sapiens, UniProt P07306)
T1 sequence (P07306 whole entry): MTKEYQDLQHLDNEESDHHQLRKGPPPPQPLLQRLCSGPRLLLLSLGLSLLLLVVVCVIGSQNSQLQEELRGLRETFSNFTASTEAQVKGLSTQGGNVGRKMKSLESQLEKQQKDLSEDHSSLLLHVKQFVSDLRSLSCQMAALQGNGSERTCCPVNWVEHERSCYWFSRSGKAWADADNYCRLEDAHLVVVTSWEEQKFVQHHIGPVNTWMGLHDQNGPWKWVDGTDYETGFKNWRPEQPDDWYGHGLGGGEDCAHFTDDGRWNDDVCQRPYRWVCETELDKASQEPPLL
Assay: ASGPR Measured Using Surface Plasmon Resonance (SPR)
Protocol: Recombinant ASGPR protein is first biotinylated using Maleimide-PEG2-biotin reagent (Pierce, 19-fold molar excess) in phosphate-buffered saline (PBS) solution overnight at 4° C. Excess amount of biotin in the reaction mixture is removed by Zeba desalting columns (Thermo). Biotinylation is confirmed by mass spectroscopic analysis of ASGPR. Biotinylated ASGPR is then immobilized on SA sensor chips (GE Healthcare) with an immobilization level ranging from 1500-3000 resonance units (RU). The running buffer is 50 mM Tris, pH7.5, 150 mM NaCl, 50 mM CaCl2), 0.01% P20, 3% DMSO. […] The compounds are diluted 3 folds with total 8 concentration points. Solutions containing serially diluted compounds are injected at a flow rate of 50 μL/min for 60 sec followed by a 180 sec dissociation phase for each concentration. Data is processed using the analysis software in Biacore 8K to perform background subtraction, double referencing and solvent correction.

OC[C@H]1OC[C@H](Nc2nc(-c3ccncc3)ns2)[C@@H](O)[C@H]1O [US20240072809, Compound A319]
Kd: < 100 µM

OC[C@H]1OC[C@@H](Nc2ncns2)[C@@H](O)[C@H]1O [US20240072809, Compound A147]
Kd: < 100 µM

OC[C@H]1OC[C@H](Nc2nc(Cl)cs2)[C@@H](O)[C@H]1O [US20240072809, Compound A99]
Kd: > 1000 µM

OC[C@H]1OC[C@@H](Nc2nc(Cl)cs2)[C@@H](O)[C@H]1O [US20240072809, Compound A148]
Kd: > 20 µM

CO[C@@H]1O[C@H](CO)[C@H](O)[C@H](O)[C@H]1Nc1ncns1 [US20240072809, Compound A110]
Kd: < 100 µM

OCCC[C@@H]1CO[C@H](CO)[C@H](O)[C@@H]1O [US20240072809, Compound A162]
Kd: > 1000 µM
